# Measured values taken from patent US8367830B2, “Methods for the identification of phosphatidylinositol kinase interacting molecules and for the purification of phosphatidylinositol kinase proteins” (Cellzome AG, priority 2009, dated 2013).
# Experiments:
# Assay in all cases: Kinobeads competition binding, immobilized CZC31207, Jurkat/Ramos lysate mix
# Details in all cases: 10 μM free compound; mix of Jurkat and Ramos cell lysates
# PIK4Ca = PIK4Ca (Homo sapiens, UniProt P42356); set-up: capturing and identification of kinases from amix of Jurkat and Ramos cell lysates; endogenous in cells; host or cells: mix of Jurkat and Ramos cell lysates
# Description: (§1) To the first aliquot of cell lysate 10 μM of the free compound CZC31207 was added and allowed to bind to proteins in the lysate. Then the affinity matrix with the immobilized compound was added to capture proteins that were not interacting with the previously added free compound. Beads were separated from the lysate and bead bound proteins were eluted in SDS sample buffer and subsequently separated by SDS-Polyacrylamide gel electrophoresis (FIG. 5). Suitable gel bands were cut out and subjected to in-gel proteolytic digestion with trypsin. The second lysate aliquot was processed identically, however no free compound was added (DMSO solvent control). Peptides originating from samples 1 and 2 were labeled with iTRAQ reagents (iTRAQ 114 and iTRAQ 116) and the combined samples were analyzed with a nano-flow liquid chromatography system coupled online to a tandem mass spectrometer (LC-MS/MS) experiment followed by iTRAQ reporter ion quantification in the MS/MS spectra as described in Example 2.
# (§2) Jurkat cells (ATCC number T1B-152) and Ramos cells (ATCC number CRL-1596) were either obtained from an external supplier (CIL SA, Mons, Belgium) or grown in one litre Spinner flasks (Integra Biosciences, #182101) in suspension in RPMI 1640 medium (Invitrogen, #21875-034) supplemented with 10% Fetal Bovine Serum (Invitrogen, #10270-106) at a density between 0.2×10^6 and 1.0×10^6 cells/ml. […]
# CaMK2g = CaMK2g (Homo sapiens, UniProt Q13555); set-up: capturing and identification of kinases from amix of Jurkat and Ramos cell lysates; endogenous in cells; host or cells: mix of Jurkat and Ramos cell lysates
# Description: as §1, §2
# CDC2 = molecular target: T1, CDC2 (Homo sapiens, UniProt P06493)
# T1 construct: endogenous in cells; host or cells: mixed lysate of Jurkat and Ramos cells
# Description: as §1
# (§3) Jurkat cells (ATCC number T1B-152) and Ramos cells (ATCC number CRL-1596) were either obtained from an external supplier (CIL SA, Mons, Belgium) or grown in one litre Spinner flasks (Integra Biosciences, #182101) in suspension in RPMI 1640 medium (Invitrogen, #21875-034) supplemented with 10% Fetal Bovine Serum (Invitrogen, #10270-106) at a density between 0.2×10^6 and 1.0×10^6 cells/ml. Cells were harvested by centrifugation, washed once with 1×PBS buffer (Invitrogen, #14190-094) and cell pellets were frozen in liquid nitrogen and subsequently stored at −80° C.
# (§4) The identified kinases are shown in Table 5 including the percent competition values for the sample to which 10 μM free compound had been added. In total of 20 different kinases were identified and competed by different degrees.
# MST1 = molecular target: T2, MST1 (Homo sapiens, UniProt Q13043)
# T2 construct: endogenous in cells; host or cells: mixed lysate of Jurkat and Ramos cells
# Description: as §1, §3, §4
# CDK6 = molecular target: T3, CDK6 (Homo sapiens, UniProt Q00534)
# T3 construct: endogenous in cells; host or cells: mixed lysate of Jurkat and Ramos cells
# Description: as §1, §3, §4
# PIK3C3 = molecular target: T4, PIK3C3 (Homo sapiens, UniProt Q8NEB9)
# T4 construct: endogenous in cells; host or cells: mixed lysate of Jurkat and Ramos cells
# Description: as §1, §3, §4
# BIKE = molecular target: T5, BIKE (Homo sapiens, UniProt Q9NSY1)
# T5 construct: endogenous in cells; host or cells: mix of Jurkat and Ramos cell lysates
# Description: as §1, §3, §4
# PIP5K2A = molecular target: T6, PIP5K2A (Homo sapiens, UniProt P48426)
# T6 construct: endogenous in cells
# Description: as §1, §3, §4
# PKD2 = molecular target: T7, PKD2 (Homo sapiens, UniProt Q9BZL6)
# T7 construct: endogenous in cells; host or cells: mixed lysate of Jurkat and Ramos cells
# Description: as §1, §3, §4
# PIK4C2B = molecular target: T8, PIK4C2B (Homo sapiens, UniProt Q8TCG2)
# T8 construct: endogenous in cells; host or cells: mixed lysate of Jurkat and Ramos cells
# Description: as §1, §3, §4
# CaMK2d = molecular target: T9, CaMK2d (Homo sapiens, UniProt Q13557)
# T9 construct: endogenous in cells; host or cells: mix of Jurkat and Ramos cell lysates
# Description: as §1, §3, §4
# PIK3Cd = PIK3Cd (Homo sapiens, UniProt O00329); set-up: endogenous in cells
# Description: as §1, §3, §4
# PIP5K2C = PIP5K2C (Homo sapiens, UniProt Q8TBX8); set-up: endogenous in cells
# Description: as §1, §3, §4
# PIK3Cg = PIK3Cg (Homo sapiens, UniProt P48736); set-up: endogenous in cells
# Description: as §1, §3, §4
# DNAPK = DNAPK (Homo sapiens, UniProt P78527); set-up: endogenous in cells
# Description: as §1, §3, §4
# NEK2 = NEK2 (Homo sapiens, UniProt P51955); set-up: endogenous in cells
# Description: as §1, §3, §4
# PIK3Cb = PIK3Cb (Homo sapiens, UniProt P42338); set-up: endogenous in cells
# Description: as §1, §3, §4
# FRAP = FRAP (Homo sapiens, UniProt P42345); set-up: endogenous in cells
# Description: as §1, §3, §4
# T2 sequence (Q13043 whole entry): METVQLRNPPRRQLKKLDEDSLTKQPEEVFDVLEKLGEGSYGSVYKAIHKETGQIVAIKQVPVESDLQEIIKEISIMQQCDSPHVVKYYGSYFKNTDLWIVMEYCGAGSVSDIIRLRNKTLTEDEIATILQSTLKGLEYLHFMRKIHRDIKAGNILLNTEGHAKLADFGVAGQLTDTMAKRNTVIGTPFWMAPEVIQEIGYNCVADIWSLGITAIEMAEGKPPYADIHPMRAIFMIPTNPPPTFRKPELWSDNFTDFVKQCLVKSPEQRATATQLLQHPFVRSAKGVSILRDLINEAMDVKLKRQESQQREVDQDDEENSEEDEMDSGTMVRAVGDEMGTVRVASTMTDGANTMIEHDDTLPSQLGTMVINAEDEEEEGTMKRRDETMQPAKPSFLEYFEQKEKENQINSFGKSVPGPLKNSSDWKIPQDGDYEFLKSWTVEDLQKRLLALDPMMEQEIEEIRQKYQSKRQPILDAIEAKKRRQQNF
# T8 sequence (Q8TCG2 whole entry): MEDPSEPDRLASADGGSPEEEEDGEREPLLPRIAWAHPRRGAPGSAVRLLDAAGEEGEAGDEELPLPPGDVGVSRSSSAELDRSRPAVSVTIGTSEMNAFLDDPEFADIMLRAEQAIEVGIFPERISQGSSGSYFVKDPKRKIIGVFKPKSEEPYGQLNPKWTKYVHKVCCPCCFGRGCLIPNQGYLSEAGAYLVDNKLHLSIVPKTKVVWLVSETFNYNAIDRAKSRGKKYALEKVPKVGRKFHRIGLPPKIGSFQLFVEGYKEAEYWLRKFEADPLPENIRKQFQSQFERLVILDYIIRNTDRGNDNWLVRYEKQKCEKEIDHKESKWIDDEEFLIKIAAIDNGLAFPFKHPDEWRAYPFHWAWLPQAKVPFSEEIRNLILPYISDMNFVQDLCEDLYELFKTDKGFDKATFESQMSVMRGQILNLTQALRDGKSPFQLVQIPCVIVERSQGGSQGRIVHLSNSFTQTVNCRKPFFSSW
# Chain of PIK3Cb (P42338 whole entry): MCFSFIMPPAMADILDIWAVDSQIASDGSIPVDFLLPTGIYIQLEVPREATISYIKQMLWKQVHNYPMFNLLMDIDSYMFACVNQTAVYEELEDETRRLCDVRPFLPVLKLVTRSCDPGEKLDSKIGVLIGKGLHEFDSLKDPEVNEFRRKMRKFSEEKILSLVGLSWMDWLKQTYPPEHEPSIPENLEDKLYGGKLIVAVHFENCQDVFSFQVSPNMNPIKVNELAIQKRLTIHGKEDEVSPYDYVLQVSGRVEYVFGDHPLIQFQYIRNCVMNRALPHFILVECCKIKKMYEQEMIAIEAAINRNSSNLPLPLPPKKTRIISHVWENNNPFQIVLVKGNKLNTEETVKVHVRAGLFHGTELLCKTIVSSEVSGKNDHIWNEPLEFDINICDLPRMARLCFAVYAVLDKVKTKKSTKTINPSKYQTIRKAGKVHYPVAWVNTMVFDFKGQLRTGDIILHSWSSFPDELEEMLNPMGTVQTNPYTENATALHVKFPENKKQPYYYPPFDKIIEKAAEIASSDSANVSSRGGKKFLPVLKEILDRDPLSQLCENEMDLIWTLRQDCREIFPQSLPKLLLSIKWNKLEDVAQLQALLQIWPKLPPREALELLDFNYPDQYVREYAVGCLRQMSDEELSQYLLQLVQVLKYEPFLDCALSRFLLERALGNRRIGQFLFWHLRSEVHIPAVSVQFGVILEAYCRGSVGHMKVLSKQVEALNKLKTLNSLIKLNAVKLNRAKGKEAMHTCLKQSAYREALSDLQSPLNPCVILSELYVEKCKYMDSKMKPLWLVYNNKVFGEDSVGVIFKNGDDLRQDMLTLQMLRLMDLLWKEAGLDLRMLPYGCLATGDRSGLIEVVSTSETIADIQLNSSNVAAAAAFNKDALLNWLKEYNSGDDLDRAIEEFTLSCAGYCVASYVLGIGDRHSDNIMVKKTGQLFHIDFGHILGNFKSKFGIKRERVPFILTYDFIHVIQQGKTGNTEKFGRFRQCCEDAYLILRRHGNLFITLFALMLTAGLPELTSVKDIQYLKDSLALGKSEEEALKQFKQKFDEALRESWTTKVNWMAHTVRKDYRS
# Chain of PIK3Cb (P27986 whole entry partner): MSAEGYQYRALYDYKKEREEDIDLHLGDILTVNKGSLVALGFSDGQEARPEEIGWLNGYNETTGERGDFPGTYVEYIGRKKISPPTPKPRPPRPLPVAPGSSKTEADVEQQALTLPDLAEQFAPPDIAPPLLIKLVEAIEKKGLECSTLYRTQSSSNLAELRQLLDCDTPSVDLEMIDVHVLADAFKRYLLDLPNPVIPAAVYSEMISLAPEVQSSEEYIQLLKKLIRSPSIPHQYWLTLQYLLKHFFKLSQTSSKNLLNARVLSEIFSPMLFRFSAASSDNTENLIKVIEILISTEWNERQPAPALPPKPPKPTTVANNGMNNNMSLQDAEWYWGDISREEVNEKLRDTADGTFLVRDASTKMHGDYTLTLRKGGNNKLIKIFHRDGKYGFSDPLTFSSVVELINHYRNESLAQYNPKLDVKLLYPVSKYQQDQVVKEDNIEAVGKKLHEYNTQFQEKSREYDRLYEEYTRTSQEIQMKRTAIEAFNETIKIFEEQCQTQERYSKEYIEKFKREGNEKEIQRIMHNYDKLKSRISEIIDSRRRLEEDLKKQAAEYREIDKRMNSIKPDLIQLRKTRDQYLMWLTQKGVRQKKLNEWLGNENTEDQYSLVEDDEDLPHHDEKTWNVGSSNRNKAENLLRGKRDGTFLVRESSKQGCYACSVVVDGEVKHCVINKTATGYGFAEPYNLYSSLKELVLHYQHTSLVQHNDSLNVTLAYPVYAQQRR
# T5 sequence (Q9NSY1 whole entry): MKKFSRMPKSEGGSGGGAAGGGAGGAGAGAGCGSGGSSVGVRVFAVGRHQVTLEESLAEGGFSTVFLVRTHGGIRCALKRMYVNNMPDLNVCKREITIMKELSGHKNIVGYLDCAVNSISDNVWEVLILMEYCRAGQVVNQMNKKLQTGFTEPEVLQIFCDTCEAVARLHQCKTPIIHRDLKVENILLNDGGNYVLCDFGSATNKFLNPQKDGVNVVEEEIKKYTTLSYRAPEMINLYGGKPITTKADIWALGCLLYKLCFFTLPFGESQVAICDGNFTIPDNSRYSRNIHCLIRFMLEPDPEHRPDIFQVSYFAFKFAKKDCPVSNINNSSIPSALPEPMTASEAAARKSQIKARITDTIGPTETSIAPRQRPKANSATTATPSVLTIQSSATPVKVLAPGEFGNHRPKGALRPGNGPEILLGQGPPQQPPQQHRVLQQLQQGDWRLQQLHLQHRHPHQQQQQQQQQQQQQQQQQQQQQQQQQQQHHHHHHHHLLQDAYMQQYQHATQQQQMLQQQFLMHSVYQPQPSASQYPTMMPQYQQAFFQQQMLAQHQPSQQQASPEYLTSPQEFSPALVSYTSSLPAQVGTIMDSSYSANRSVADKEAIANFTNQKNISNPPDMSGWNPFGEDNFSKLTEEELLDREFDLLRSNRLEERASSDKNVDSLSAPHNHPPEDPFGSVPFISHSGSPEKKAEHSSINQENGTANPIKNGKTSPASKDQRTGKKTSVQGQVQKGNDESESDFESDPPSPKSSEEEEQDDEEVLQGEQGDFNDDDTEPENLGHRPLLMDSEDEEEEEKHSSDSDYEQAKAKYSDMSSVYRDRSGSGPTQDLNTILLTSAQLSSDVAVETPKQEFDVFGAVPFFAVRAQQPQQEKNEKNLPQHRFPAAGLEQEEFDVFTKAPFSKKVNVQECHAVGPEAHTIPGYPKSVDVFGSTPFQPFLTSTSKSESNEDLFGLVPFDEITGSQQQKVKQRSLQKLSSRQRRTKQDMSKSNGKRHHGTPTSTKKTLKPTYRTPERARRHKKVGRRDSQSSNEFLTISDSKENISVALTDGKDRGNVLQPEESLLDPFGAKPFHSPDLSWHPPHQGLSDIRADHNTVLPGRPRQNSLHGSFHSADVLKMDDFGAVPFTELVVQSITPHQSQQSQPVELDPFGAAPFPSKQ
# Chain of PIP5K2C (Q8TBX8 whole entry): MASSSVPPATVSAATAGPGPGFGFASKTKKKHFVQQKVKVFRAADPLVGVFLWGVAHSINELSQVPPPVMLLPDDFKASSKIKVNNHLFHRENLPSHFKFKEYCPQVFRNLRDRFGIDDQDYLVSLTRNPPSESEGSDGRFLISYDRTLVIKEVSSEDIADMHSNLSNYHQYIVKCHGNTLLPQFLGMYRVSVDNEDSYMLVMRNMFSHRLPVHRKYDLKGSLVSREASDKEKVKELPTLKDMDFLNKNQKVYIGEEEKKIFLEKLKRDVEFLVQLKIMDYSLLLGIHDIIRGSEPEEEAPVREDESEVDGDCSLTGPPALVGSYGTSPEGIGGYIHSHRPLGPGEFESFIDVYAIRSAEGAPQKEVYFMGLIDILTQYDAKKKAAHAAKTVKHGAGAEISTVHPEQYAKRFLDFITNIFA
# T6 sequence (P48426 whole entry): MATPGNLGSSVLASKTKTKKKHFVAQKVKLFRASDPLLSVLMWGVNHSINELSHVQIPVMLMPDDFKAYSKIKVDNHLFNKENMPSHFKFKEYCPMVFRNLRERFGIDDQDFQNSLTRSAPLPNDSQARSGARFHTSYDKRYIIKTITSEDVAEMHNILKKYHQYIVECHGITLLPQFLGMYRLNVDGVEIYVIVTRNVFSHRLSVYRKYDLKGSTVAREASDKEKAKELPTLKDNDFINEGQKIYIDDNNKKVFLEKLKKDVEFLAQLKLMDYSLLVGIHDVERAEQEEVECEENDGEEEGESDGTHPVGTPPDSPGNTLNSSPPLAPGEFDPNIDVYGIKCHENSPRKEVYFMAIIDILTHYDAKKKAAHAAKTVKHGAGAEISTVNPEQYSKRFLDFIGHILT
# T1 sequence (P06493 whole entry): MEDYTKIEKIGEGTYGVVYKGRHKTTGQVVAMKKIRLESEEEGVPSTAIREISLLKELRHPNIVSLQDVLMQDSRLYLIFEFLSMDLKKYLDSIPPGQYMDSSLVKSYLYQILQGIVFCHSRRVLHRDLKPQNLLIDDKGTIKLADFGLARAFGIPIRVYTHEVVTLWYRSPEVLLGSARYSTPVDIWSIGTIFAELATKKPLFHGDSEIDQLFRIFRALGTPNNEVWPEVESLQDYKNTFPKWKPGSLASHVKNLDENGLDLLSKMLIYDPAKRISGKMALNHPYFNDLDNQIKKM
smiles,measurement,setting,value
"CC(C)NS(=O)(=O)c1cncc(-c2ccc3nc(NC(=O)NCCN)nn3c2)c1 [CZC31207, 5-(2-(3-(2-aminoethyl)ureido)-[1,2,4]triazolo[1,5-a]pyridin-6-yl)-N-isopropylpyridine-3-sulfonamide]",Competition % PIK4Ca,PIK4Ca,28.5%
same,Competition % CaMK2g,CaMK2g,−3.1%
same,Competition % CDC2,CDC2,34.1%
same,Competition % MST1,MST1,24.5%
same,Competition % CDK6,CDK6,−1.6%
same,Competition % PIK3C3,PIK3C3,52.4%
same,Competition % BIKE,BIKE,26.1%
same,Competition % PIP5K2A,PIP5K2A,68.5%
same,Competition % PKD2,PKD2,37.9%
same,Competition % PIK4C2B,PIK4C2B,20.3%
same,Competition % CaMK2d,CaMK2d,−1.3%
same,Competition % PIK3Cd,PIK3Cd,91.3%
same,Competition % PIP5K2C,PIP5K2C,75.5%
same,Competition % PIK3Cg,PIK3Cg,91.5%
same,Competition % DNAPK,DNAPK,38.2%
same,Competition % NEK2,NEK2,17%
same,Competition % PIK3Cb,PIK3Cb,94.8%
same,Competition % FRAP,FRAP,−87.1%
